This note sets out measurements from US9765056B2, “Indole and pyrrole compounds, a process for their preparation and pharmaceutical compositions containing them” (LES LABORATOIRES SERVIER, priority 2013, dated 2017).

For orientation: IC50 means the midpoint of a concentration-inhibition curve.

One test deals with Bcl-2 protein (histag-Bcl-2, UniProtKB P10415) (Homo sapiens (Human), UniProt P10415). The experiment in a line: Inhibition of Bcl-2 by the fluorescence polarisation technique. It is filed as binding. The settings on record: fluorescence polarisation test; method A, or method B where underlined (underlining not visible); read-out: IC50 (nM) Bcl-2 FP. An excerpt:
Inhibition of Bcl-2 by the fluorescence polarisation technique
(In general: Fluorescence polarisation rises when a labelled molecule tumbles more slowly, as on binding a larger partner.)

Test [1] relates to RS4;11 leukaemia tumour line. Nature of the test: In vitro cytotoxicity, Microculture Tetrazolium Assay (MTT). The following applies: Homo sapiens; RS4;11 cells, 48 hours exposure. In kind it is cell-based. Here is the method:
The cytotoxicity studies were carried out on the RS4;11 leukaemia tumour line.
The cells are distributed onto microplates and exposed to the test compounds for 48 hours. The cell viability is then quantified by a colorimetric assay, the Microculture Tetrazolium Assay (Cancer Res., 1987, 47, 939-942).

Where a name gives a salt, the structure may show the parent alone.

Chain of Bcl-2 protein (P10415 whole entry): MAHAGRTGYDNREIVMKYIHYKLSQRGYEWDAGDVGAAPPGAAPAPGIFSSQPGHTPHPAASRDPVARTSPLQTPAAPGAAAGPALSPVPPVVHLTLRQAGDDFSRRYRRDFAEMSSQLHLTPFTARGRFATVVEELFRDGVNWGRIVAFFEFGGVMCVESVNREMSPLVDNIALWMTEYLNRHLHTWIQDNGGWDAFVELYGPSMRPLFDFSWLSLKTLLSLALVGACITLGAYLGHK

Take `CN1CCN(C[C@@H]2Cc3ccccc3CN2C(=O)c2ccc(Cl)cc2-n2cc(C(=O)N(c3ccc(O)cc3)c3ccc(Cl)cc3)c3ccccc32)CC1` [Example 76, 1-(5-Chloro-2-{[(3S)-3-[(4-methylpiperazin-1-yl)methyl]-3,4-dihydroisoquinolin-2(1H)-yl]carbonyl}phenyl)-N-(4-chlorophenyl)-N-(4-hydroxyphenyl)-1H-indole-3-carboxamide]: the IC50 amounted to 8.7 nM on Bcl-2 protein and 151 nM in test [1].
As for `NC[C@@H]1Cc2ccccc2CN1C(=O)c1ccccc1-n1nc(C(=O)N(c2ccccc2)c2ccc(O)cc2)c2ccccc21` [Example 148, 1-{2-[(3S)-3-(Aminomethyl)-1,2,3,4-tetrahydroisoquinoline-2-carbonyl]-phenyl}-N-(4-hydroxyphenyl)-N-phenyl-1H-indazole-3-carboxamide], the 50% inhibitory concentration (IC50) came out at 28.3 nM at Bcl-2 protein and 1170 nM in test [1].
Turning to `CCCCN(C(=O)c1cn(-c2cc(OC)c(O)cc2C(=O)N2Cc3ccccc3C[C@H]2CN2CCN(C)CC2)c2ccccc12)c1ccccc1` [Example 194, N-Butyl-1-{4-hydroxy-5-methoxy-2-[(3S)-3-[(4-methylpiperazin-1-yl)-methyl]-1,2,3,4-tetrahydroisoquinoline-2-carbonyl]phenyl}-N-phenyl-1H-indole-3-carboxamide dihydrochloride], the IC50 stood at 6.7 nM on Bcl-2 protein and 534 nM in test [1].
Taken in the same sequence, the figures for `CCCCN(C(=O)c1cn(-c2cc(OC)c(O)cc2C(=O)N2Cc3ccccc3C[C@H]2CN2CCN(C)CC2)c2ccccc12)c1ccc(O)cc1` [Example 203, N-Butyl-1-{4-hydroxy-5-methoxy-2-[(3S)-3-[(4-methylpiperazin-1-yl)methyl]-1,2,3,4-tetrahydroisoquinoline-2-carbonyl]phenyl}-N-(4-hydroxyphenyl)-1H-indole-3-carboxamide dihydrochloride] were 10 nM and 454 nM.
For `CN(C)C[C@@H]1Cc2ccccc2CN1C(=O)c1ccc(Cl)cc1-n1cc(C(=O)N(c2ccccc2)c2ccc(O)cc2)c2ccccc21` [Example 179, 1-{5-Chloro-2-[(3S)-3-[(dimethylamino)methyl]-1,2,3,4-tetrahydroisoquinoline-2-carbonyl]phenyl}-N-(4-hydroxyphenyl)-N-phenyl-1H-indole-3-carboxamide hydrochloride] the same measures were 18.1 nM and 886 nM.
For `COc1cc(-n2cc(C(=O)N(c3ccccc3)c3ccc(O)cc3)c3ccccc32)c(C(=O)N2Cc3ccccc3C[C@H]2CN2CCCCC2)cc1O` [Example 176, 1-{4-Hydroxy-5-methoxy-2-[(3S)-3-(piperidin-1-ylmethyl)-1,2,3,4-tetrahydroisoquinoline-2-carbonyl]phenyl}-N-(4-hydroxyphenyl)-N-phenyl-1H-indole-3-carboxamide hydrochloride], the half-inhibitory concentration (IC50) at Bcl-2 protein was 6.2 nM; in test [1] it was 225 nM.
`Cc1ccc(N(C(=O)c2cc(C)n(-c3cc4c(cc3C(=O)N3Cc5ccccc5C[C@H]3CN3CCN(C)CC3)OCO4)c2)c2ccc(O)cc2)cc1` [Example 96, N-(4-Hydroxyphenyl)-5-methyl-N-(4-methylphenyl)-1-(6-{[(3S)-3-[(4-methylpiperazin-1-yl)methyl]-3,4-dihydroisoquinolin-2(1H)-yl]carbonyl}-1,3-benzodioxol-5-yl)-1H-pyrrole-3-carboxamide]: the IC50 was determined as 3.9 nM at Bcl-2 protein and 157 nM in test [1].
For `COc1cc(-n2cc(C(=O)N(c3ccccc3)c3ccc4[nH]ccc4c3)c3ccccc32)c(C(=O)N2Cc3ccccc3C[C@H]2CN2CCN(C)CC2)cc1O` [Example 198, 1-{4-Hydroxy-5-methoxy-2-[(3S)-3-[(4-methylpiperazin-1-yl)methyl]-1,2,3,4-tetrahydroisoquinoline-2-carbonyl]phenyl}-N-(1H-indol-5-yl)-N-phenyl-1H-indole-3-carboxamide] the same measures were 3.4 nM and 616 nM.
Taken in the same sequence, the figures for `Cc1ccc(N(C(=O)c2cc(C)n(-c3cc4c(cc3C(=O)N3Cc5ccccc5C[C@H]3CN3CCOCC3)OCO4)c2)c2ccc(O)cc2)cc1` [Example 106, N-(4-Hydroxyphenyl)-5-methyl-N-(4-methylphenyl)-1-(6-{[(3S)-3-(morpholin-4-ylmethyl)-3,4-dihydroisoquinolin-2(1H)-yl]carbonyl}-1,3-benzodioxol-5-yl)-1H-pyrrole-3-carboxamide hydrochloride] were 19.6 nM and 521 nM.
For `CN1CCN(C[C@@H]2Cc3ccccc3CN2C(=O)c2cc3c(cc2-n2cc(C(=O)N(c4ccc(O)cc4)c4ccc(O)cc4)c4ccccc42)OCO3)CC1` [Example 41, N,N-bis(4-Hydroxyphenyl)-1-(6-{[(3S)-3-[(4-methylpiperazin-1-yl)-methyl]-3,4-dihydroisoquinolin-2(1H)-yl]carbonyl}-1,3-benzodioxol-5-yl)-1H-indole-3-carboxamide] the same measures were 3.7 nM and 52.2 nM.
Turning to `NC[C@@H]1Cc2ccccc2CN1C(=O)c1cc(N)ccc1-n1nc(C(=O)N(c2ccccc2)c2ccccc2)c2ccccc21` [Example 138, 1-{4-Amino-2-[(3S)-3-(aminomethyl)-1,2,3,4-tetrahydroisoquinoline-2-carbonyl]phenyl}-N,N-diphenyl-1H-indazole-3-carboxamide], the values for the IC50 (on Bcl-2 protein; in test [1]) were 52.2 nM and 2020 nM, respectively.
For `Cc1cc(C(=O)N(c2ccccc2)c2ccc(O)cc2)cn1-c1cc(Br)c(Br)cc1C(=O)N1Cc2ccccc2C[C@H]1CN1CCN(C)CC1` [Example 16, 1-(4,5-Dibromo-2-{[(3S)-3-[(4-methylpiperazin-1-yl)methyl]-3,4-dihydroisoquinolin-2(1H)-yl]carbonyl}phenyl)-N-(4-hydroxyphenyl)-5-methyl-N-phenyl-1H-pyrrole-3-carboxamide] the same measures were 29.6 nM and 656 nM.
Taken in the same sequence, the figures for `COc1cc(-n2cc(C(=O)N(c3ccc(O)cc3)C3CCCCC3)c3ccccc32)c(C(=O)N2Cc3ccccc3C[C@H]2CN2CCN(C)CC2)cc1O` [Example 204, N-Cyclohexyl-1-{4-hydroxy-5-methoxy-2-[(3S)-3-[(4-methylpiperazin-1-yl)methyl]-1,2,3,4-tetrahydroisoquinoline-2-carbonyl]phenyl}-N-(4-hydroxyphenyl)-1H-indole-3-carboxamide dihydrochloride] were 4.7 nM and 780 nM.
Regarding `CN1CCN(C[C@@H]2Cc3ccccc3CN2C(=O)c2ccc(Br)cc2-n2cc(C(=O)N(c3ccc(O)cc3)c3ccc(F)cc3)c3ccccc32)CC1` [Example 71, 1-(5-Bromo-2-{[(3S)-3-[(4-methylpiperazin-1-yl)methyl]-3,4-dihydroisoquinolin-2(1H)-yl]carbonyl}phenyl)-N-(4-fluorophenyl)-N-(4-hydroxyphenyl)-1H-indole-3-carboxamide], the IC50 came out at 8.3 nM at Bcl-2 protein and 196 nM in test [1].
Taken in the same sequence, the figures for `Cc1cc(C(=O)N(c2ccc(O)cc2)c2ccc3c(ccn3C)c2)cn1-c1cc2c(cc1C(=O)N1Cc3ccccc3C[C@H]1CN1CCOCC1)CCO2` [Example 118, N-(4-Hydroxyphenyl)-5-methyl-N-(1-methyl-1H-indol-5-yl)-1-(5-{[(3S)-3-(morpholin-4-ylmethyl)-3,4-dihydroisoquinolin-2(1H)-yl]carbonyl}-2,3-dihydro-1-benzofuran-6-yl)-1H-pyrrole-3-carboxamide] were 5.9 nM and 114 nM.
